Data from ChEMBL document CHEMBL4602605, “Fluoroquinolones structural and medicinal developments (2013-2018): Where are we now?” (Bioorg Med Chem, 2019).
Values after ≈ are worked out from the molar mass of the structure shown. Values belong to the molecule of their own block, whether it stands above or below them.

Columns and labels:
Type in all cases: functional
[1] = tested on: Staphylococcus epidermidis; assay: Antimicrobial activity against methicillin-resistant Staphylococcus epidermidis 12-1 incubated for 18 to 24 hrs
Staphylococcus aureus [2] = assay: Antimicrobial activity against Staphylococcus aureus ATCC 25923 incubated for 18 to 24 hrs
Pseudomonas aeruginosa [3] = assay: Antimicrobial activity against Pseudomonas aeruginosa ATCC 12-12 incubated for 18 to 24 hrs
Escherichia coli [4] = assay: Antimicrobial activity against Escherichia coli ATCC 25922 incubated for 18 to 24 hrs
Staphylococcus aureus [5] = assay: Antimicrobial activity against methicillin-resistant Staphylococcus aureus ATCC 12-1 incubated for 18 to 24 hrs
Bacillus subtilis = assay: Antimicrobial activity against Bacillus subtilis 10B incubated for 18 to 24 hrs by disk diffusion method
Staphylococcus aureus [6] = assay: Antimicrobial activity against Staphylococcus aureus ATCC 25923 incubated for 18 to 24 hrs by disk diffusion method
Escherichia coli [7] = assay: Antimicrobial activity against Escherichia coli ATCC 25922 incubated for 18 to 24 hrs by disk diffusion method
Pseudomonas aeruginosa [8] = assay: Antimicrobial activity against Pseudomonas aeruginosa ATCC 27853 incubated for 18 to 24 hrs by disk diffusion method
Staphylococcus aureus [9] = assay: Antimicrobial activity against Staphylococcus aureus ATCC 6538 by agar dilution method
Pseudomonas aeruginosa [10] = assay: Antimicrobial activity against Pseudomonas aeruginosa ATCC 9027 by agar well diffusion method
Escherichia coli [11] = assay: Antimicrobial activity against Escherichia coli ATCC 8739 by agar dilution method
Aspergillus clavatus = assay: Antifungal activity against Aspergillus clavatus after overnight incubation by agar well diffusion method
Staphylococcus aureus [12] = assay: Antimicrobial activity against methicillin-resistant Staphylococcus aureus clinical isolate incubated for 16 hrs by CLSI based agar dilution method
[13] = tested on: Staphylococcus epidermidis; assay: Antimicrobial activity against methicillin-resistant Staphylococcus epidermidis clinical isolate incubated for 16 hrs by CLSI based agar dilution method
Klebsiella pneumoniae = assay: Antimicrobial activity against Klebsiella pneumoniae ATCC 29522 incubated for 16 hrs by CLSI-based agar dilution method; details: ATCC 29522, 16 h
Staphylococcus aureus [14] = assay: Antimicrobial activity against methicillin-susceptible Staphylococcus aureus clinical isolate incubated for 16 hrs by CLSI based agar dilution method
Escherichia coli [15] = assay: Antimicrobial activity against Escherichia coli ATCC 700603 incubated for 16 hrs by CLSI-based agar dilution method; details: ATCC 700603, 16 h
[16] = tested on: Staphylococcus epidermidis; assay: Antimicrobial activity against methicillin-susceptible Staphylococcus epidermidis clinical isolate incubated for 16 hrs by CLSI based agar dilution method

SMILES: CO/N=C1\CCN(c2c(F)cc3c(=O)c(C(=O)O)cn(C4CC4)c3c2OC)CC1NC(=O)C(C)NC(=O)C(C)N (configuration not stated)
- MIC [1]: 64 µg/mL (≈ 114 µM)
- MIC (Staphylococcus aureus [2]): 4 µg/mL (≈ 7.14 µM)
- MIC (Pseudomonas aeruginosa [3]): 128 µg/mL (≈ 228 µM)
- MIC (Escherichia coli [4]): 32 µg/mL (≈ 57.1 µM)
- MIC (Staphylococcus aureus [5]): > 128 µg/mL

- MIC (Bacillus subtilis): 29.6 µg/mL (≈ 117 µM)
- MIC (Staphylococcus aureus [6]): 369 µg/mL (≈ 1460 µM)
- MIC (Escherichia coli [7]): 24.6 µg/mL (≈ 97.3 µM)
- MIC (Pseudomonas aeruginosa [8]): 138 µg/mL (≈ 547 µM)
SMILES: CCn1cc(C(=O)O)c(=O)c2cc(F)c(F)cc21

- MIC (Staphylococcus aureus [9]): 4 µg/mL (≈ 10.9 µM)
- MIC (Pseudomonas aeruginosa [10]): 1 µg/mL (≈ 2.72 µM)
- MIC (Escherichia coli [11]): 2 µg/mL (≈ 5.44 µM)
SMILES: CCn1cc(C(=O)O)c(=O)c2cc(F)c(N3CCN(C)CC3)c(Cl)c21

SMILES: CO/N=C1\CCN(c2c(F)cc3c(=O)c(C(=O)O)cn(C4CC4)c3c2OC)CC1NC(=O)[C@H](N)[C@H](C)O (some centres not stated)
- MIC [1]: 64 µg/mL (≈ 123 µM)
- MIC (Staphylococcus aureus [2]): 2 µg/mL (≈ 3.85 µM)
- MIC (Pseudomonas aeruginosa [3]): 64 µg/mL (≈ 123 µM)
- MIC (Escherichia coli [4]): 16 µg/mL (≈ 30.8 µM)
- MIC (Staphylococcus aureus [5]): 128 µg/mL (≈ 246 µM)

SMILES: COc1c(N2CCN(C)CC2)c(F)cc2c(=O)c(C(=O)N/N=C\c3ccc(F)cc3)cn(C3CC3)c12
- inhibition zone (IZ) (Aspergillus clavatus): 11 mm

SMILES: O=C(O)c1cn(CCF)c2c(F)c(N3CCN(CC(O)Cn4cc([N+](=O)[O-])nc4Cl)CC3)c(F)cc2c1=O (configuration not stated)
- MIC (Staphylococcus aureus [12]): 32 µg/mL (≈ 57.3 µM)
- MIC [13]: 2 µg/mL (≈ 3.58 µM)
- MIC (Klebsiella pneumoniae): > 32 µg/mL
- MIC (Staphylococcus aureus [14]): 16 µg/mL (≈ 28.6 µM)
- MIC (Escherichia coli [15]): > 32 µg/mL
- MIC [16]: 16 µg/mL (≈ 28.6 µM)

SMILES: CCn1cc(C(=O)O)c(=O)c2cc(F)c(N3CCN(CC(O)Cn4cc([N+](=O)[O-])nc4Cl)C(C)C3)c(F)c21 (configuration not stated)
- MIC (Staphylococcus aureus [12]): 32 µg/mL (≈ 57.7 µM)
- MIC [13]: 0.125 µg/mL (≈ 0.225 µM)
- MIC (Klebsiella pneumoniae): 32 µg/mL (≈ 57.7 µM)
- MIC (Staphylococcus aureus [14]): 4 µg/mL (≈ 7.21 µM)
- MIC (Escherichia coli [15]): 4 µg/mL (≈ 7.21 µM)
- MIC [16]: 2 µg/mL (≈ 3.6 µM)

- MIC (Staphylococcus aureus [9]): < 0.125 µg/mL
- MIC (Pseudomonas aeruginosa [10]): 8 µg/mL (≈ 23.6 µM)
- MIC (Escherichia coli [11]): 16 µg/mL (≈ 47.2 µM)
SMILES: CCn1cc(C(=O)O)c(=O)c2cc(F)c(N3CCCC3)c(Cl)c21

SMILES: COc1c(N2C[C@@H]3CCCN(C[C@H](O)Cn4cc([N+](=O)[O-])nc4C)[C@@H]3C2)c(F)cc2c(=O)c(C(=O)O)cn(C3CC3)c12
- MIC (Staphylococcus aureus [12]): 2 µg/mL (≈ 3.42 µM)
- MIC [13]: 0.03 µg/mL (≈ 0.0513 µM)
- MIC (Klebsiella pneumoniae): 1 µg/mL (≈ 1.71 µM)
- MIC (Staphylococcus aureus [14]): 0.125 µg/mL (≈ 0.214 µM)
- MIC (Escherichia coli [15]): 2 µg/mL (≈ 3.42 µM)
- MIC [16]: 0.125 µg/mL (≈ 0.214 µM)

SMILES: CCC(C)[C@H](N)C(=O)NC1CN(c2c(F)cc3c(=O)c(C(=O)O)cn(C4CC4)c3c2OC)CC/C1=N\OC (some centres not stated)
- MIC [1]: 64 µg/mL (≈ 120 µM)
- MIC (Staphylococcus aureus [2]): 0.5 µg/mL (≈ 0.941 µM)
- MIC (Pseudomonas aeruginosa [3]): 128 µg/mL (≈ 241 µM)
- MIC (Escherichia coli [4]): 8 µg/mL (≈ 15 µM)
- MIC (Staphylococcus aureus [5]): 64 µg/mL (≈ 120 µM)

- MIC (Staphylococcus aureus [9]): 2 µg/mL
- MIC (Pseudomonas aeruginosa [10]): 128 µg/mL
- MIC (Escherichia coli [11]): 31.2 µg/mL
SMILES: CCn1cc(C(=O)O)c(=O)c2cc(F)c(N3CCNC(C)C3)c(Cl)c21.Cl (configuration not stated)

- MIC (Staphylococcus aureus [9]): 2 µg/mL (≈ 5.45 µM)
- MIC (Pseudomonas aeruginosa [10]): 128 µg/mL (≈ 349 µM)
- MIC (Escherichia coli [11]): 8 µg/mL (≈ 21.8 µM)
SMILES: CCn1cc(C(=O)O)c(=O)c2cc(F)c(N3CCCC(C)C3)c(Cl)c21 (configuration not stated)

SMILES: O=C(O)c1cn(C2CC2)c2nc(N3CCN(CC(O)Cn4cc([N+](=O)[O-])nc4Cl)CC3)c(F)cc2c1=O (configuration not stated)
- MIC (Staphylococcus aureus [12]): 16 µg/mL (≈ 29.9 µM)
- MIC [13]: 0.125 µg/mL (≈ 0.233 µM)
- MIC (Klebsiella pneumoniae): > 32 µg/mL
- MIC (Staphylococcus aureus [14]): 4 µg/mL (≈ 7.46 µM)
- MIC (Escherichia coli [15]): 16 µg/mL (≈ 29.9 µM)
- MIC [16]: 2 µg/mL (≈ 3.73 µM)

SMILES: COc1c(N2CCCC(N(C)CC(O)Cn3cc([N+](=O)[O-])nc3Cl)C2)c(F)cc2c(=O)c(C(=O)O)cn(C3CC3)c12 (configuration not stated)
- MIC (Staphylococcus aureus [12]): 8 µg/mL (≈ 13.5 µM)
- MIC [13]: 0.25 µg/mL (≈ 0.422 µM)
- MIC (Klebsiella pneumoniae): > 32 µg/mL
- MIC (Staphylococcus aureus [14]): 0.5 µg/mL (≈ 0.843 µM)
- MIC (Escherichia coli [15]): 4 µg/mL (≈ 6.75 µM)
- MIC [16]: 0.5 µg/mL (≈ 0.843 µM)

- MIC (Staphylococcus aureus [9]): 4 µg/mL (≈ 10.4 µM)
- MIC (Pseudomonas aeruginosa [10]): 16 µg/mL (≈ 41.5 µM)
- MIC (Escherichia coli [11]): 2 µg/mL (≈ 5.19 µM)
SMILES: N[C@@H]1CCN2c3c(F)cc4c(=O)c(C(=O)O)cn(C5CC5)c4c3CCCC[C@H]12

SMILES: CO/N=C1\CCN(c2c(F)cc3c(=O)c(C(=O)O)cn(C4CC4)c3c2OC)CC1NC(=O)[C@H]1CCCN1 (some centres not stated)
- MIC [1]: 64 µg/mL (≈ 124 µM)
- MIC (Staphylococcus aureus [2]): 0.25 µg/mL (≈ 0.485 µM)
- MIC (Pseudomonas aeruginosa [3]): 64 µg/mL (≈ 124 µM)
- MIC (Escherichia coli [4]): 4 µg/mL (≈ 7.76 µM)
- MIC (Staphylococcus aureus [5]): 64 µg/mL (≈ 124 µM)

SMILES: COc1c(N2C[C@@H]3CCCN(CC(O)Cn4cc([N+](=O)[O-])nc4C)[C@@H]3C2)c(F)cc2c(=O)c(C(=O)O)cn(C3CC3)c12 (some centres not stated)
- MIC (Staphylococcus aureus [12]): 8 µg/mL (≈ 13.7 µM)
- MIC [13]: 0.125 µg/mL (≈ 0.214 µM)
- MIC (Klebsiella pneumoniae): 8 µg/mL (≈ 13.7 µM)
- MIC (Staphylococcus aureus [14]): 0.5 µg/mL (≈ 0.855 µM)
- MIC (Escherichia coli [15]): 4 µg/mL (≈ 6.84 µM)
- MIC [16]: 0.25 µg/mL (≈ 0.428 µM)

SMILES: CO/N=C1\CCN(c2c(F)cc3c(=O)c(C(=O)O)cn(C4CC4)c3c2OC)CC1NC(=O)[C@H](N)Cc1ccccc1 (some centres not stated)
- MIC [1]: 64 µg/mL (≈ 113 µM)
- MIC (Staphylococcus aureus [2]): 0.125 µg/mL (≈ 0.221 µM)
- MIC (Pseudomonas aeruginosa [3]): 128 µg/mL (≈ 226 µM)
- MIC (Escherichia coli [4]): 16 µg/mL (≈ 28.3 µM)
- MIC (Staphylococcus aureus [5]): 64 µg/mL (≈ 113 µM)

SMILES: CCn1cc(C(=O)O)c(=O)c2cc(F)c(N3CCN(CC(O)Cn4cc([N+](=O)[O-])nc4Cl)CC3)nc21 (configuration not stated)
- MIC (Staphylococcus aureus [12]): 32 µg/mL (≈ 61.1 µM)
- MIC [13]: 4 µg/mL (≈ 7.63 µM)
- MIC (Klebsiella pneumoniae): > 32 µg/mL
- MIC (Staphylococcus aureus [14]): 16 µg/mL (≈ 30.5 µM)
- MIC (Escherichia coli [15]): > 32 µg/mL
- MIC [16]: 2 µg/mL (≈ 3.82 µM)

- MIC (Bacillus subtilis): > 500 µg/mL
- MIC (Staphylococcus aureus [6]): > 500 µg/mL
- MIC (Escherichia coli [7]): 150 µg/mL (≈ 451 µM)
- MIC (Pseudomonas aeruginosa [8]): > 500 µg/mL
SMILES: CCn1cc(C(=O)O)c(=O)c2cc(F)c(Nc3n[nH]c(N)n3)cc21

SMILES: CO/N=C1\CCN(c2c(F)cc3c(=O)c(C(=O)O)cn(C4CC4)c3c2OC)CC1NC(=O)[C@H](N)CO (some centres not stated)
- MIC [1]: 64 µg/mL (≈ 127 µM)
- MIC (Staphylococcus aureus [2]): 1 µg/mL (≈ 1.98 µM)
- MIC (Pseudomonas aeruginosa [3]): 128 µg/mL (≈ 253 µM)
- MIC (Escherichia coli [4]): 16 µg/mL (≈ 31.7 µM)
- MIC (Staphylococcus aureus [5]): 64 µg/mL (≈ 127 µM)

SMILES: COc1c(N2CCCC(N(C)C[C@@H](O)Cn3cc([N+](=O)[O-])nc3C)C2)c(F)cc2c(=O)c(C(=O)O)cn(C3CC3)c12 (some centres not stated)
- MIC (Staphylococcus aureus [12]): 32 µg/mL (≈ 55.9 µM)
- MIC [13]: 0.25 µg/mL (≈ 0.437 µM)
- MIC (Klebsiella pneumoniae): 16 µg/mL (≈ 27.9 µM)
- MIC (Staphylococcus aureus [14]): 1 µg/mL (≈ 1.75 µM)
- MIC (Escherichia coli [15]): 8 µg/mL (≈ 14 µM)
- MIC [16]: 1 µg/mL (≈ 1.75 µM)
